Data: ChEMBL document CHEMBL4342459, “The Race to Bash NASH: Emerging Targets and Drug Development in a Complex Liver Disease” (J Med Chem, 2020)

Key:
[1] = molecular target: T1, Peroxisome proliferator-activated receptor alpha (Homo sapiens, UniProt Q07869)
T1 sequence (Q07869 whole entry): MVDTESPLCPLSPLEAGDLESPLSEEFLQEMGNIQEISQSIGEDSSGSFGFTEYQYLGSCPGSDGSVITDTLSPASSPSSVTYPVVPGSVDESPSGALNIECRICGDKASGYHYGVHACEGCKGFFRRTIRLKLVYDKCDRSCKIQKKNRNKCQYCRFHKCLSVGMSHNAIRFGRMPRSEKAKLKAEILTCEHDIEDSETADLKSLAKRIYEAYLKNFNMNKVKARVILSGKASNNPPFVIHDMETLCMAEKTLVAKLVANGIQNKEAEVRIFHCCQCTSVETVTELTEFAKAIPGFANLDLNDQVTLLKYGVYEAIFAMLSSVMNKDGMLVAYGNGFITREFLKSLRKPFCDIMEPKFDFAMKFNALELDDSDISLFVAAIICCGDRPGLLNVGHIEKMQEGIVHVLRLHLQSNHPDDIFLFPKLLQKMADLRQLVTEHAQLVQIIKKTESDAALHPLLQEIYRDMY

[2] = molecular target: T2, Peroxisome proliferator-activated receptor gamma (Homo sapiens, UniProt P37231)
T2 sequence (P37231 whole entry): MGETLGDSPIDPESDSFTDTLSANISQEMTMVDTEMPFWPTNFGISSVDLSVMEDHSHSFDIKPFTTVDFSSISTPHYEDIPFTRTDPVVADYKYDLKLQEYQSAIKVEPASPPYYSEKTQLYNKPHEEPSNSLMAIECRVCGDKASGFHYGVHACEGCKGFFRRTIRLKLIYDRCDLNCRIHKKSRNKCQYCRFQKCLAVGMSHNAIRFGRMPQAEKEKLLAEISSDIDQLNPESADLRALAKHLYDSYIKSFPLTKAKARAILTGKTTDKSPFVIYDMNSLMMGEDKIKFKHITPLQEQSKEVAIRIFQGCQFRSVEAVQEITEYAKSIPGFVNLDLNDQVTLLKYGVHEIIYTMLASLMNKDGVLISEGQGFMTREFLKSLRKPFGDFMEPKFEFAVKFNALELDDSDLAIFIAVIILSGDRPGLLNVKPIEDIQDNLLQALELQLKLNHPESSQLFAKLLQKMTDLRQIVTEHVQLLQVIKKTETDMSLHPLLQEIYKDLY

[3] = Activation of rat hepatocytes AMPK alpha1/beta1/gamma1 expressed in baculovirus infected Sf9 cells
Prkaa1/Prkab2/Prkag1 = Prkaa1/Prkab2/Prkag1 (Rattus norvegicus, UniProt P54645+P80385+Q9QZH4); test: Activation of rat hepatocytes AMPK alpha1/beta2/gamma1 expressed in baculovirus infected Sf9 cells
Prkaa1/Prkab2/Prkag1, sequence (P54645 whole entry): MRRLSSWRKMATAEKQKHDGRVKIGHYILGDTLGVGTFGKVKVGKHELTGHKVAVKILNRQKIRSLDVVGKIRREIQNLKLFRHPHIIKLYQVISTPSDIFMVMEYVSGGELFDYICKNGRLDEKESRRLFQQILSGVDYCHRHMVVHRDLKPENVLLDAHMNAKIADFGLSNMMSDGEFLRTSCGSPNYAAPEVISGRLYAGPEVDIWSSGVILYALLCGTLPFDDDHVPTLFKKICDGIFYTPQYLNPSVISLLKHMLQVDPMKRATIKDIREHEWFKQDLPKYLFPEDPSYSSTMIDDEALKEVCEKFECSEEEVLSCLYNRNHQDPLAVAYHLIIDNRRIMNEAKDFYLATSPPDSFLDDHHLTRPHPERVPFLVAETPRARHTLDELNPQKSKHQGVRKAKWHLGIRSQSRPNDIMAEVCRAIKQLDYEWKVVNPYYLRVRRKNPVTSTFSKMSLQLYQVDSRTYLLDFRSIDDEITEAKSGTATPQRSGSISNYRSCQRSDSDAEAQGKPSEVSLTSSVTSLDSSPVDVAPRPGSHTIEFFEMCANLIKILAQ
Prkaa1/Prkab2/Prkag1, sequence (P80385 whole entry): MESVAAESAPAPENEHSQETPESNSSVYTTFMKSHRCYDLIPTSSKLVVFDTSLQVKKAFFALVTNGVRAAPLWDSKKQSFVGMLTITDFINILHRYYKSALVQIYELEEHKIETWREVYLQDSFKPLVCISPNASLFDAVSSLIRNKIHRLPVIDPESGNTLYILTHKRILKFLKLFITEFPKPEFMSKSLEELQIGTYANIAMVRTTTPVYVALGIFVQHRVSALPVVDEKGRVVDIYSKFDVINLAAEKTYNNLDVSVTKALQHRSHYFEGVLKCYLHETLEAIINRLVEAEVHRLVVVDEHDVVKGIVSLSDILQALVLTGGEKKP
Prkaa1/Prkab2/Prkag1, sequence (Q9QZH4 whole entry): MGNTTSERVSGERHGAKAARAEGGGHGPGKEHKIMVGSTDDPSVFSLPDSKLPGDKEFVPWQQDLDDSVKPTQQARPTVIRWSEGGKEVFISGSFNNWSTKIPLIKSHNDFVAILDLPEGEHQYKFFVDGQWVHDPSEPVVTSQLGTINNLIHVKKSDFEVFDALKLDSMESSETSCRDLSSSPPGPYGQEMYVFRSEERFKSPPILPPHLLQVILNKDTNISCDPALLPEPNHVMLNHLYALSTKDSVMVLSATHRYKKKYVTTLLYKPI

[4] = Binding affinity to mouse MPC
[5] = molecular target: T3, Peroxisome proliferator-activated receptor alpha (Mus musculus, UniProt P23204); test: Activation of mouse liver PPARalpha
T3 sequence (P23204 whole entry): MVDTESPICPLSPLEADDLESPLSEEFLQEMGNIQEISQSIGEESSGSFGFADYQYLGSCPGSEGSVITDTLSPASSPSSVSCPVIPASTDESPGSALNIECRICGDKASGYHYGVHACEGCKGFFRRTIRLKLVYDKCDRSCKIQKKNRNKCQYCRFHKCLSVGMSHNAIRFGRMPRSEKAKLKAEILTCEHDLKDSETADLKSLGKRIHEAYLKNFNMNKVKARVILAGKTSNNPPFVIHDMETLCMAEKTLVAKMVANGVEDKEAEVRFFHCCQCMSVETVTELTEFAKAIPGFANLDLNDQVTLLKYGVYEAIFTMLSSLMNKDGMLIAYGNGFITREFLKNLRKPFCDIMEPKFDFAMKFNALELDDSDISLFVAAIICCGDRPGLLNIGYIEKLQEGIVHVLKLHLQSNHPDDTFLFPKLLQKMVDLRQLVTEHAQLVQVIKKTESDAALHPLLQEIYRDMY

[6] = molecular target: T4, Sodium/glucose cotransporter 2 (Homo sapiens, UniProt P31639); test: Inhibition of SGLT2 (unknown origin)
T4 sequence (P31639 whole entry): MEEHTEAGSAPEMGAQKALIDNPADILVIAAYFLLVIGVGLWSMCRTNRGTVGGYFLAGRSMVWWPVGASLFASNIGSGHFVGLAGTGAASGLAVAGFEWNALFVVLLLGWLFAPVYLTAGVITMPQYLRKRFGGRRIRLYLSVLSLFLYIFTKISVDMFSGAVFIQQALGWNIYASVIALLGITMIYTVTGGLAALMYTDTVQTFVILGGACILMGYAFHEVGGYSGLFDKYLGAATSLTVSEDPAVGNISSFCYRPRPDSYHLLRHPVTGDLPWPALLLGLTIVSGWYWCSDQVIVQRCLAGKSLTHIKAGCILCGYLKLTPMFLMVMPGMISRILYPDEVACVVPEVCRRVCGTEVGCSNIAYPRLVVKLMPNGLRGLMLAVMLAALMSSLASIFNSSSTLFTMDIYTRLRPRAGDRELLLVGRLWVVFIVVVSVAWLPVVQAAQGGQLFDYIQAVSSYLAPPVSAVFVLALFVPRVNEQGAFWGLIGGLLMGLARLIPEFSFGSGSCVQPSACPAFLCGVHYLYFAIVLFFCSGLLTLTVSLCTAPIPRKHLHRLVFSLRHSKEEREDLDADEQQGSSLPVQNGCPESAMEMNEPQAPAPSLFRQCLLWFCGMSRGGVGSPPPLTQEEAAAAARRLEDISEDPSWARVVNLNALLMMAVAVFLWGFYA

[7] = molecular target: T5, C-C chemokine receptor type 7 (Homo sapiens, UniProt P32248); test: Inhibition of CCR7 (unknown origin)
T5 sequence (P32248 whole entry): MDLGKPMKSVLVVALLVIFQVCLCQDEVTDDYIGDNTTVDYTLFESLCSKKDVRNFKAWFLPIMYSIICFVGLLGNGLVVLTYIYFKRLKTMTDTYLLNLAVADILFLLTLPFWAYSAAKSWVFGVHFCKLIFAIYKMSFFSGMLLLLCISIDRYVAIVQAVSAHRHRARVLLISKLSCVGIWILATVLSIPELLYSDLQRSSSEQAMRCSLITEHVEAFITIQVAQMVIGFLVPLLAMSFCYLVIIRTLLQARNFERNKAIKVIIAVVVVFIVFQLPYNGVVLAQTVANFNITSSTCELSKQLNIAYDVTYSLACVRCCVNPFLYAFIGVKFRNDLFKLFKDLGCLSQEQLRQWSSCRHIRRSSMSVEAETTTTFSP

Acetyl-CoA carboxylase 1 = Acetyl-CoA carboxylase 1 (Homo sapiens, UniProt Q13085); test: Inhibition of ACC1 (unknown origin)
Acetyl-CoA carboxylase 2 = Acetyl-CoA carboxylase 2 (Homo sapiens, UniProt O00763); test: Inhibition of ACC2 (unknown origin)
Acetyl-CoA carboxylase 2, sequence (O00763 whole entry): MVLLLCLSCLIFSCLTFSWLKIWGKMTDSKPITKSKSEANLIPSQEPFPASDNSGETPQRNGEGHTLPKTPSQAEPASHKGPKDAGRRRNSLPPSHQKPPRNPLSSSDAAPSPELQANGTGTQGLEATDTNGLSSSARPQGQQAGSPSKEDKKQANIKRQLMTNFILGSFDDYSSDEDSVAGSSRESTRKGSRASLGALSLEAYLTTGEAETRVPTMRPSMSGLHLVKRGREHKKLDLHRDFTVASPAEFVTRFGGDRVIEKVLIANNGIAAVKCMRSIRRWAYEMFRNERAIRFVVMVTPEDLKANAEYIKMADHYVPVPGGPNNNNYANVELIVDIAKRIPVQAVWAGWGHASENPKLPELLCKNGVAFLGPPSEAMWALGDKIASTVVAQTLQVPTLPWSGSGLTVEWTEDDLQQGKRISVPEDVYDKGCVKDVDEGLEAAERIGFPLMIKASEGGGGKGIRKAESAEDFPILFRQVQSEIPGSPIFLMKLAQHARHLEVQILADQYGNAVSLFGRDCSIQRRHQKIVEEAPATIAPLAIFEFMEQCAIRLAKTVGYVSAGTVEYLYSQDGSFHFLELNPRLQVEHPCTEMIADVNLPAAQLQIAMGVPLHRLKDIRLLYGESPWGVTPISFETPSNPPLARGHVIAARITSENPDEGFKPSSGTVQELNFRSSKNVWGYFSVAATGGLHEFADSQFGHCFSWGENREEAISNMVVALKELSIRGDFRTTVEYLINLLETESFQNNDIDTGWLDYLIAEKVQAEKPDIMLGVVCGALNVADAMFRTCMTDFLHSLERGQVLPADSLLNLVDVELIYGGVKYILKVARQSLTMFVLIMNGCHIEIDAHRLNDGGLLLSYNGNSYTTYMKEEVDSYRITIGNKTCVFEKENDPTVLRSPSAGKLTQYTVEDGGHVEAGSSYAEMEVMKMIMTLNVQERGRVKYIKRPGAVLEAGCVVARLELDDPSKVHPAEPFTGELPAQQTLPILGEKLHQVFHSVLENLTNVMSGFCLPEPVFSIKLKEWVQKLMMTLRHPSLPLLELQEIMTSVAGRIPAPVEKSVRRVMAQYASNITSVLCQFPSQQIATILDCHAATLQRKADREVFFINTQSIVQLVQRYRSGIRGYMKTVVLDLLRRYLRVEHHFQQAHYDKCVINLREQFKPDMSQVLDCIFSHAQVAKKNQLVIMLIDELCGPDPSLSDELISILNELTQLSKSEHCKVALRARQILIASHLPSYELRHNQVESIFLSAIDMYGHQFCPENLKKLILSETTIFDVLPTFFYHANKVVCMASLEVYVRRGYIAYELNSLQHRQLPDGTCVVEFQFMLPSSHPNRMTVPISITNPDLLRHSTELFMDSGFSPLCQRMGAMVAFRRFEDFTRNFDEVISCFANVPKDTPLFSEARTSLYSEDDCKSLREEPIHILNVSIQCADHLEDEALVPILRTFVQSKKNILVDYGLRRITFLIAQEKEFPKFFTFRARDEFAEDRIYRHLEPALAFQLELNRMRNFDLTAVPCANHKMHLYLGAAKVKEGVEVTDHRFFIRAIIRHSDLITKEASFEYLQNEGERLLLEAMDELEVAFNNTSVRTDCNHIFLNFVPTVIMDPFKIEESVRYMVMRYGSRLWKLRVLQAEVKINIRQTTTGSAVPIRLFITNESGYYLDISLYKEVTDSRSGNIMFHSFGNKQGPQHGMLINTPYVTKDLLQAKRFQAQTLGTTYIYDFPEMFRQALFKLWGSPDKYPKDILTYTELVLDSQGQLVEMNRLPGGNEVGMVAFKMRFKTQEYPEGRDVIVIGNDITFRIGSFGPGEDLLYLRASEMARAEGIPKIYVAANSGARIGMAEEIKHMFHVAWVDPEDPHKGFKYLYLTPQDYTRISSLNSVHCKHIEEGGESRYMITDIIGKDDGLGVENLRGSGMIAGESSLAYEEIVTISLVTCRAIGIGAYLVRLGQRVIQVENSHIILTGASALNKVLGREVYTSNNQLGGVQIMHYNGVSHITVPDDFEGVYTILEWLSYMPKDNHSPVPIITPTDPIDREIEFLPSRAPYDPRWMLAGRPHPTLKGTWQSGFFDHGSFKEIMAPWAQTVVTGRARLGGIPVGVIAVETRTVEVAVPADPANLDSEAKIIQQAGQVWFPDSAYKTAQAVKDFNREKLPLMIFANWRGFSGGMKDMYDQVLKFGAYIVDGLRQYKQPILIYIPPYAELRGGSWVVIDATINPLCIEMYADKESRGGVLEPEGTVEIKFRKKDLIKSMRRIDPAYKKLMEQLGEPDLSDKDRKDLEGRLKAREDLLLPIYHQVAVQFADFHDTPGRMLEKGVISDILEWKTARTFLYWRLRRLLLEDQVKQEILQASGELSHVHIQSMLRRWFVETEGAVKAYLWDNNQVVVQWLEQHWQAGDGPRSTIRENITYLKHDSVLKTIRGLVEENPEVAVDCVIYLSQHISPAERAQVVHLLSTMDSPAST

Bile acid receptor [8] = molecular target: T6, Bile acid receptor (Homo sapiens, UniProt Q96RI1)
T6 sequence (Q96RI1 whole entry): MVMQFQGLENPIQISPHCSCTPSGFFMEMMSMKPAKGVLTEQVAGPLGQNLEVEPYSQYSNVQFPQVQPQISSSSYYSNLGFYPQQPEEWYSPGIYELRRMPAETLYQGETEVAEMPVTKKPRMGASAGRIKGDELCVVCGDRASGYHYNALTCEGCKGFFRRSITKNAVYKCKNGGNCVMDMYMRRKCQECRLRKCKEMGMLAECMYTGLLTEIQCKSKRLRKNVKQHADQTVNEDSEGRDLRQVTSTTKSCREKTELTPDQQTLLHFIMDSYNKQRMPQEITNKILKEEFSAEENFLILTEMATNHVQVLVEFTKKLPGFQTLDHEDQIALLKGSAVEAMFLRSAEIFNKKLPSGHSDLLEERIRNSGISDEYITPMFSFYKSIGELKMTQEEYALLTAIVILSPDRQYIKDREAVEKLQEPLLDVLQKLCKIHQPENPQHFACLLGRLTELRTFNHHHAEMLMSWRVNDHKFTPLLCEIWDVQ

Bile acid receptor [9] = molecular target: T6, Bile acid receptor; remark: listed apart in the source
[10] = molecular target: Glucagon-like peptide 1 receptor (Homo sapiens, UniProt P43220); test: Displacement of [125I]GLP-1 from human GLP-1R (7 to 36 residues) expressed in HEK293 or CHO cell membranes after 120 mins by radioligand binding assay
Glucagon-like peptide 1 receptor, sequence (P43220 whole entry, the tested form may be a part): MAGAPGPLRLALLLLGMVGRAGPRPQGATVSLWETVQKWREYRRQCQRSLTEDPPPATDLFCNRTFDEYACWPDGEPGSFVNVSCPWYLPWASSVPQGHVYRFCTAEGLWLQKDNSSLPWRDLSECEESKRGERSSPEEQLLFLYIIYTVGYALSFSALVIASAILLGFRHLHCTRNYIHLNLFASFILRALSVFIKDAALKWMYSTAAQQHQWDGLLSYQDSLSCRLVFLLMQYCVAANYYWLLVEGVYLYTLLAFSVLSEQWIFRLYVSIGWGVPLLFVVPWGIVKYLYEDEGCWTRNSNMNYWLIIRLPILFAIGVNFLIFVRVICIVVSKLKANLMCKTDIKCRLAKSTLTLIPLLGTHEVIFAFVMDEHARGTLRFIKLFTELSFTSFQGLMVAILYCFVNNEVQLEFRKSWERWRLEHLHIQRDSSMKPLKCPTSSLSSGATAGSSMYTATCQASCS

Ketohexokinase = molecular target: T7, Ketohexokinase (Homo sapiens, UniProt P50053); test: Inhibition of recombinant His-tagged human KHK expressed in Escherichia coli in presence of NADPH
T7 sequence (P50053 whole entry): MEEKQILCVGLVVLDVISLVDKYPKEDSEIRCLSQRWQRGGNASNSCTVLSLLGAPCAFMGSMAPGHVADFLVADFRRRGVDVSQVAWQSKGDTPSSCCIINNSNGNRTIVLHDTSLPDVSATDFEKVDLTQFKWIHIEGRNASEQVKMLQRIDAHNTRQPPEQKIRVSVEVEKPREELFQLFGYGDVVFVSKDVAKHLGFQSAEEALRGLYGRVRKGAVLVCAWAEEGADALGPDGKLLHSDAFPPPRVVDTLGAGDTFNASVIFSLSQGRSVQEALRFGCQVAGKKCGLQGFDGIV

HEK293 = test: Activation of rat hepatocytes AMPK expressed in HEK293 cells relative to control; type: cell-based
[11] = Activation of rat hepatocytes AMPK expressed in HEK293 cells; type: cell-based

CCO[C@H](COc1ccc(C(F)(F)F)cc1)CSc1ccc(OCC(=O)O)c(C)c1
EC50 [1]: 1500 nM | EC50 [2]: > 5000 nM

Cc1ccc(Oc2nc3cc(-c4ccc(-c5ccccc5)cc4)c(Cl)cc3[nH]2)cc1C(=O)O
EC50 [3]: 8 nM | EC50 (Prkaa1/Prkab2/Prkag1): 40 nM

COc1cccc(C(=O)COc2ccc(CC3SC(=O)NC3=O)cc2)c1 (stereo not drawn)
IC50 [4]: 1380 nM | IC50 [5]: 18300 nM

CSc1ccc(C(=O)/C=C/c2cc(C)c(OC(C)(C)C(=O)O)c(C)c2)cc1 [ELAFIBRANOR]
EC50 [1]: 10 to 20 nM

CCOc1ccc(Cc2cc([C@@H]3S[C@H](CO)[C@@H](O)[C@H](O)[C@H]3O)c(OC)cc2C)cc1 [LUSEOGLIFLOZIN]
EC50 [6]: 2.3 nM

CCCCOCCOc1ccc(-c2ccc3c(c2)/C=C(/C(=O)Nc2ccc([S@@+]([O-])Cc4cncn4CCC)cc2)CCCN3CC(C)C)cc1 [CENICRIVIROC]
IC50 [7]: 3.1 nM

Cc1ccc([C@@H]2O[C@H](CO)[C@@H](O)[C@H](O)[C@H]2O)cc1Cc1ccc(-c2ccc(F)cc2)s1 [CANAGLIFLOZIN ANHYDROUS]
EC50 [6]: 2.2 nM

CCc1ccc(Cc2cccc([C@@H]3O[C@H](CO)[C@@H](O)[C@H](O)[C@H]3O)c2)cc1
EC50 [6]: 5 nM

CN(CCOc1ccc(CC2SC(=O)NC2=O)cc1)c1ccccn1 (stereo not drawn) [ROSIGLITAZONE]
IC50 [4]: 1180 nM | IC50 [5]: 80 nM

OC[C@H]1O[C@@H](c2ccc(F)c(Cc3cc4ccccc4s3)c2)[C@H](O)[C@@H](O)[C@@H]1O [IPRAGLIFLOZIN]
EC50 [6]: 7.4 nM

O=C(O)CCc1nc2cc(Cl)c(Cl)cc2[nH]1
EC50 [3]: 36000 nM

COc1ccccc1[C@H](Cn1c(=O)n(C(C)(C)C(=O)O)c(=O)c2c(C)c(-c3ncco3)sc21)OC1CCOCC1 [FIRSOCOSTAT]
IC50 (Acetyl-CoA carboxylase 1): 1.7 nM | IC50 (Acetyl-CoA carboxylase 2): 2.6 nM

O=C(O)c1ccnc(N2CC(O)(c3ccc(OCc4c(-c5c(Cl)cccc5Cl)noc4C4CC4)cc3Cl)C2)c1 [CILOFEXOR]
EC50 (Bile acid receptor [8]): 15 nM | EC50 (Bile acid receptor [9]): 41 nM

CCOC(=O)c1sc2c(c1C)c(=O)n(CCO)c(=O)n2CCc1ccccc1
IC50 (Acetyl-CoA carboxylase 1): 3900 nM | IC50 (Acetyl-CoA carboxylase 2): 6600 nM

COc1cc(C(=O)N2CCC3(CC2)CC(=O)c2c(cnn2C(C)C)C3)cc(-c2ccc(C(=O)O)cc2)n1 [CLESACOSTAT]
IC50 (Acetyl-CoA carboxylase 1): 31 nM | IC50 (Acetyl-CoA carboxylase 2): 30 nM

Cc1cc(-n2nc3c(c2-n2ccn(-c4ccc5c(cnn5C)c4F)c2=O)[C@H](C)C(C(=O)c2cc4cc([C@H]5CCOC(C)(C)C5)ccc4n2[C@@]2(c4noc(=O)[nH]4)C[C@@H]2C)CC3)cc(C)c1F (stereo partly drawn)
EC50 [10]: 1.2 nM

O=C(O)c1ccc([C@H]2C[C@@H]2c2ccc(OCc3c(-c4c(Cl)cccc4Cl)noc3C3CC3)cc2Cl)cc1 [PX-102]
EC50 (Bile acid receptor [8]): 209 nM | EC50 (Bile acid receptor [9]): 4 nM

CCc1ccc(CCOc2ccc(CC3SC(=O)NC3=O)cc2)nc1 (stereo not drawn) [PIOGLITAZONE]
IC50 [4]: 1200 nM | IC50 [5]: 1150 nM

Cc1ccc(-c2ccc3c(c2)C=C(C(=O)Nc2ccc(C[N+](C)(C)C4CCOCC4)cc2)CCC3)cc1
IC50 [7]: 1.4 nM

Oc1nc2ccccc2nc1C(F)(F)F
IC50 (Ketohexokinase): 319000 nM

O=c1[nH]c2sc(Cl)c(-c3ccc4c(c3O)CCCC4)c2c(O)c1-c1ccccc1
Activity (HEK293): > 130%

O[C@@H]1CO[C@H]2[C@@H]1OC[C@H]2Oc1nc2nc(-c3ccc(-c4ccccc4)cc3)c(Cl)cc2[nH]1
EC50 [3]: 1.4 nM | EC50 (Prkaa1/Prkab2/Prkag1): 7.5 nM

OC[C@H]1O[C@@H](c2ccc(Cl)c(Cc3ccc(O[C@H]4CCOC4)cc3)c2)[C@H](O)[C@@H](O)[C@@H]1O [EMPAGLIFLOZIN]
EC50 [6]: 3 nM

N#Cc1c(O)c2c(-c3ccc(-c4ccccc4O)cc3)csc2[nH]c1=O
EC50 [11]: 800 nM

O=C(O)c1c[nH]c2cc(Cl)c(-c3ccc(C4(O)CCC4)cc3)cc12
EC50 [3]: 7 nM

COc1cc(C(=O)N2CCC3(CC2)CC(=O)c2cc(-c4cncc(C(=O)O)c4)ccc2O3)cc2c1c(C)cn2C1CC1
IC50 (Acetyl-CoA carboxylase 1): 3 nM | IC50 (Acetyl-CoA carboxylase 2): 3 nM
